Entries after “also recorded” stand apart in the source; their conditions may differ.
Legend:
S. aureus = conditions: agar plates exposed to gNO; cited from earlier work
[1] = Randomized double blind study of intermittent gNO inhalation in infants with bronchiolitis, interim results; assay type: in vivo, human; conditions: infants 2-12 months
Source text: The following is an exemplary protocol for clinical studies based on the methods according to embodiments of the present invention, aimed at treatment of bronchiolitis in humans. Specifically, the topic of the study is a randomized double blind evaluation of efficacy, safety and tolerability of nitric oxide given intermittently via inhalation to subjects with bronchiolitis.
An improvised inhalation device is based on standard hospital equipment and hospital oxygen source. For example, oxygen is supplied from the main hospital oxygen system via an oxygen blender, such as for example, Bird model 03800, followed by a hospital's oxygen mass flow meter. The oxygen-rich air is monitored so as to reach a maximal final concentration of about 40% O2. The blended air/oxygen is supplied to the subject via a Y-shape connector attached next to a standard hospital face mask such as for example, a Hospiltak mask by Unomedical Inc.
gNO flow, tapped from a tank containing 800 ppm nitric oxide in 99.999% pure N2, supplied by an authorized gas provider in, for example, 50 or 30 litter containers with 120 bar or 150 bar respectively, is adjusted by passing through a standard hospital's regulator, such as for example CareFusion™ model 400, and the hospital mass flow meter, such as a CareFusion™ model 77063.
The gNO flow is adjusted before each inhalation cycle based on the gNO concentration detected in the subject's mask. After a fresh system calibration, the regulator and the mass flow meter are adjusted to deliver 160 ppm of gNO at 5 to 15 liters per minute. gNO is supplied to the subject via the second arm of the Y shaped connector (specified above) attached next to the face mask. Mask and tubing ports are used to monitor continuously gNO and NO2 concentrations and FiO2 values delivered to the subject.
Halitus (exhalation) is monitored by, for example, end-tidal CO2 (EtCO2). EtCO2 is monitored using standard equipment such as Microcap® Portable Capnography Monitor, Cat.# CSO4179 by Oridion, Israel, with nasal prongs such as (Infant Neonate Cat.#008179 by Oridion, Israel.
Methemoglobin (SpMet) and oxygen saturation or dissolved oxygen (SpO2) levels are monitored continuously using a dedicated monitor such as for example RAD 57 by Masimo.
The population for the study is 44 children of 2-12 months old diagnosed with bronchiolitis, whom required hospitalization (expected dropout rate is 10%). The population is split into two groups: Group 1, referred to as the treatment group, receives intermittent (5×30 minutes, a day) inhalation of 160 ppm gNO in addition to the standard treatment of O2 administration, for up to 5 days. Between gNO inhalations, the subjects continue to receive the standard inhalation treatment (O2). Group 2, referred to as the control group, receives continuous inhalation of the standard treatment (O2).
Group 1 (treatment group) receives the standard treatment (O2) combined with the inhalation via face mask of […] administered for 30 minutes every four hours, keeping a minimum of 3 hours between the end of one gNO inhalation cycle and the beginning of the next cycle, five times a day for five consecutive days or until a decision to discontinue therapy. The maximal cumulative exposure to nitric oxide is estimate at 2,000 ppm hours.

[2] = in vivo; cited from earlier work
[3] = 300 ppm gNO, first 1-2 days, group of 10 rats; cited from earlier work
[4] = test system: influenza A/victoria/H3N2; conditions: 160 ppm exogenous gNO, MDCK cell model; cited from earlier work
[5] = test system: human respiratory syncytial virus (rgRSV30); assay: Plaque assay of gNO-exposed respiratory syncytial virus; assay type: cell-based; conditions: 160 ppm exogenous gaseous NO
P. aeruginosa = conditions: agar plates exposed to gNO; cited from earlier work
[6] = test system: highly pathogenic Avian Influenza H7N3; conditions: cited from earlier work
[7] = Prospective phase I open label safety study of intermittent 160 ppm gNO inhalation in healthy adults; assay type: in vivo, human
Source text: 10 healthy adult volunteer subjects (5 males, 5 females), aged 20 to 62 years, were enrolled in the study after screening their medical history, a physical examination, pulmonary function tests and blood values. Exclusion criteria included individuals less than 19 years of age, pregnant females and unwilling to practice birth control during the study, diagnosed with pulmonary disease, epistaxis, hemoptysis, methemoglobinemia, organ transplant recipient or receiving antibiotic therapy.
After obtaining informed consent, treatment was initiated within 5 days of enrollment. Subjects were housed in a hospital ward and received 160 ppm gNO for 30 minutes every four hours (Q4h), five times a day, for five consecutive days by inhalation. Subjects returned for follow-up evaluations 3, 7 and 21 days after the final gNO administration. Subject safety was determined by monitoring vital signs, methemoglobin levels, lung function, blood chemistry, hematology, prothrombin time, inflammatory cytokine/chemokines levels and endothelial activation. These parameters were compared to baseline and at various time-points during and after gNO administration.
Subjects were administered gNO through a modified disposable mouthpiece to maximize mixing. Inspiration was spontaneously initiated by the subject from a conventional intermittent positive pressure breathing respirator (Mark-7, Carefusion, USA) in fixed flow mode delivering 48 liters per minute (LPM). Flows of gas were verified with a calibrated mass flow meter (TSI, USA). Gaseous nitric oxide (gNO, obtained at INOmax, Ikaria, USA) at a concentration of 800 ppm delivered at a flow of 12 LPM was titrated into a distal delivery port on the mouth piece connected to the respirator during inspiratory phase only (pressure switch). The Mark 7 respirator was supplied by an air/oxygen blender (Bird Sentry, Carefusion, USA) set to deliver 26% oxygen.
The levels of gNO, NO2, O2 and methemoglobin were monitored during the administration of gNO. The target gas mixture was 160 ppm gNO with a nitrogen dioxide (NO2) level of less than 5 ppm and an oxygen (O2) level ranging from 21% to 25%. Inspiratory NO, NO2 and O2 levels were continuously monitored by sampling from the mouthpiece sample port located about 6 millimeters from the mouth of the subject with an AeroNOx (Pulmonox, AB, Canada) NO, NO2 and O2 electrochemical analyzer. Delivery safety was determined by the number of occasions that NO2 exceeded 5 ppm, gNO exceeding 10% variation and O2 dropping below 20% during gNO administration. A commercially available noninvasive pulse oximeter (Rad 57, Masimo Corporation, USA) was used to measure saturation levels at the periphery of methemoglobin (SpMet).
These parameters were measured continuously during every gNO administration course and for 3.5 hours after the first treatment of the day. Daily serum samples were collected and frozen at −80° C. and the serum […] level was measured using the Griess reagent.
Subjects underwent full pulmonary function tests (PFT), including lung diffusing capacity (DLCO) by a trained technician utilizing a calibrated pulmonary function system (Jaeger MasterScreen, VIASYS Healthcare, USA) on screening and days 2, 8, 12 and 26. Spirometry test (Microloop by Micro Medical, England) was performed on days 1, 3 and 4. Effect of gNO on lung function and DLCO was determined by changes from baseline, treatment days and follow up days.
General medical examinations were performed by a pulmonary physician on screening and on days 8, 12 and 26 to obtain oxygenation and vital sign measurements. Abbreviated physical examination by a registered nurse was carried out each day prior to initiation of treatments on days 1-5. Oxygenation was measured with a pulse oximeter (Rad 57, Masimo Corporation, USA) which was used according to manufacturer's guidelines to measure functional oxygen saturation of arterial hemoglobin (SpO2) and heart rate. […]

[8] = topical 200 ppm gNO, within the first three days of treatment; cited from earlier work
[9] = test system: five planktonic species of methicillin resistant S. aureus (MRSA); conditions: 1,600 ppm hours of gNO; cited from earlier work
[10] = cited from earlier work
[11] = 250 gNO administration procedures, 10 subjects
[12] = during and after gNO administration

Structure (SMILES): [N]=O [gNO, nitric oxide]
- effect on bacterial growth (S. aureus): bacteristatic effect
- NO2 levels during treatment [1]: below 2 ppm
- pre-methemoglobin levels in each treatment [1]: less than 5%
- premature withdrawal due to NO related adverse effect [1]: no infant withdrew prematurely
- tolerability [1]: All patients tolerated the NO treatment
- time for SpMet to return to the baseline levels ([1]; 160 ppm gNO 30 min): 210 min
- radius of action from its site of origin [2]: approximately 200 microns
- number of animals that died [3]: Six
- viral replication and infectivity [4]: reduced their infectivity; also recorded: capable of reducing the infectivity
- infectivity [5]: reduced their infectivity
- effect on bacterial growth (P. aeruginosa): bacteristatic effect
- viral replication and infectivity [6]: reduced their infectivity; also recorded: capable of reducing the infectivity
- average increase of SpMet in a single treatment course ([7]; 160 ppm gNO for 30 minutes, ten individuals): 0.9%
- adverse events / tolerability [7, 11]: do not cause lung injury or other signs of adverse effects in humans; also recorded: Neither significant adverse events nor adverse events attributable to gNO inhalation occurred; also recorded: safe and well tolerated; also recorded: no significant adverse events were observed
- number of minor adverse events reported [7, 11]: Three
- plasma cytokine levels of TNF, IL-6, IL-8, IL-10, IL-1b and IL-12p70 ([7]; cytometric bead array, vs baseline): unaffected; also recorded: remained constant
- pulmonary function tests [7, 12]: impacts lung function only minimally; also recorded: remained unchanged compared to baseline values
- vital signs [7, 12]: remained well within acceptable clinical margins
- accumulative or residual effect on SpMet ([7]; five daily treatments for five consecutive days, follow-up 3, 7 and 21 days): no accumulative or lingering effect; also recorded: did not show any residual increase in SpMet
- vascular endothelial activation factors Ang-1, Ang-2, Ang-2/Ang-1 ratio ([7]; plasma, vs baseline): not affected; also recorded: unaffected
- biofilm [8]: no longer visibly present
- bacterial population [9]: reduction in the population
- inhalation threshold limit value (TLV) as time-weighted average (TWA) ([10]; OSHA / Environmental Protection Agency): 25 ppm
- TLV-TWA in ppm hours units ([10]; calculated): 200 ppm hours

— patent US20150072023A1, “[…] NITRIC OXIDE FOR TREATING RESPIRATORY DISEASES” (Advanced Inhalation Therapies (AIT) Ltd., priority 2013, published 2015)
